Source: patent US20100010035A1, “Novel Dual Action Receptors Antagonists (Dara) at the Ati and Eta Receptors” (priority 2006, published 2010)

How the values were obtained:
human AT1 receptor = molecular target: T1, human AT1 receptor (Homo sapiens, UniProt P30556); assay: AT1 functional assay (FLIPR Ca efflux, Angiotensin-II at EC80); assay type: cell-based; settings: CHO cells over-expressing full length human AT1 receptor; Angiotensin-II as agonist at EC80
T1 construct: CHO cell stably over-expressing the full length human AT1 receptor; expressed in transfected cells
T1 sequence (P30556 1-359): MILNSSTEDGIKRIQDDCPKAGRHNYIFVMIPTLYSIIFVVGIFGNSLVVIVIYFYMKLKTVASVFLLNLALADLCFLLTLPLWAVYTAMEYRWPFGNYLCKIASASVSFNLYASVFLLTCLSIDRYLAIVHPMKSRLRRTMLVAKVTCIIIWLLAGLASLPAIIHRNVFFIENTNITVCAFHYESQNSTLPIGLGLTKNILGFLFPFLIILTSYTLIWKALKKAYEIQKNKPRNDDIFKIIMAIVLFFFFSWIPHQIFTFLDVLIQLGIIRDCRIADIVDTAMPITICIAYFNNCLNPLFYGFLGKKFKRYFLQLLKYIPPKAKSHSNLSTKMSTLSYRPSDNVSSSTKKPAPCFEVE
Method: CHO cell stably over-expressing the full length human AT1 receptor was cultured in DMEM (Gibco) with 10% FCS (Hyclone) and selection maintained using 0.5 mg/ml G418 (Gibco). Cell at 70% confluence were trypsnised, resuspended in media and counted. 20,000 cells/well were plated into black polystyrene 384-well plates with transparent bottoms and allowed 16 hours to adhere. The cells were loaded with Flou-4 (TEFLABS, USA) dye in HBSS (Gibco) for 1 hour and then washed in HBSS and 0.6 μl of diluted compounds in DMSO added to the cells in 30 μd of HBSS in Multimek liquid handling system (Beckman, USA). The cells were then placed in the Fluorometric Imaging Plate Readers (FLIPR, Molecular Devices, USA) and 20 μl of Angiotensin-II peptide as agonist (at EC80) in HBSS was added in the instrument.
(§1) The Ca efflux was followed for 2 mins and the maximum height of the peak was measured at various compound concentrations and plotted according to the equation
(§2) and IC50 estimated wherein A is the bottom plateau of the curve i.e. the final minimum y value B is the top of the plateau of the curve i.e. the final maximum y value C is the x value at the middle of the curve. This represents the log EC50 value when A+B=100 D is the slope factor. x is the original known x values. y is the original known y values.

human ETA receptor = molecular target: T2, human ETA receptor (Homo sapiens, UniProt P25101); assay: ETA functional assay (FLIPR Ca efflux, Endothelin-1 at EC80); assay type: cell-based; settings: CHO cells over-expressing full length human ETA receptor; Endothelin-1 as agonist at EC80
T2 construct: CHO cell stably over-expressing the full length human ETA receptor; expressed in transfected cells
T2 sequence (P25101 21-427): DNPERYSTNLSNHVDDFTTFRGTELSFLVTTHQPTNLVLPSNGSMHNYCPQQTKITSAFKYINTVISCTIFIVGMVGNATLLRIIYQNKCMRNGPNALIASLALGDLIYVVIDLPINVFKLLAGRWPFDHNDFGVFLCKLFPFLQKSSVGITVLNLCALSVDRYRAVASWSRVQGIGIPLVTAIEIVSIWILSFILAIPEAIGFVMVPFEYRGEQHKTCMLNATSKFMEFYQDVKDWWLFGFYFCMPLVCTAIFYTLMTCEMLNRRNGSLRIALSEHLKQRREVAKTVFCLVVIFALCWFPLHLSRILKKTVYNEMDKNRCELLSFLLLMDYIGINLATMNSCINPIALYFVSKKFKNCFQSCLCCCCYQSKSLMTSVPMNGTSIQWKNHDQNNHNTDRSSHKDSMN
Method: CHO cell stably over-expressing the full length human ETA receptor was cultured in DMEM (Gibco) with 10% FCS (Hyclone) and selection maintained using 0.5 mg/ml G418 (Gibco). Cell at 70% confluence were trypsnised, resuspended in media and counted. 20,000 cells/well were plated into black polystyrene 384-well plates with transparent bottoms and allowed 16 hours to adhere. The cells were loaded with Flou-4 (TEFLABS, USA) dye in BSS (Gibco) for 1 hour and then washed in HBSS and 0.6 μl of diluted compounds in DMSO added to the cells in 30 μl of HBSS in Multimek liquid handling system (Beckman, USA). The cells were then placed in the Fluorometric Imaging Plate Readers (FLIPR, Molecular Devices, USA) and 20 μl of Endothelin-1 peptide as agonist in HBSS (at EC80) was added in the instrument.
as §1, §2

| Compound | IC50 (human AT1 receptor) [nM] | IC50 (human ETA receptor) [nM] |
| --- | --- | --- |
| CCc1cc2c(c(Oc3ccccc3)cc(=O)n2Cc2ccc(-c3ccsc3S(=O)(=O)Nc3noc(C)c3C)cc2)c(CC)n1 [Example 8, 3-[4-(5,7-diethyl-2-oxo-4-phenoxy-2H-[1,6]naphthyridin-1-ylmethyl)-phenyl]-thiophene-2-sulphonic acid(4,5-dimethyl-isoxazol-3-yl)-amide] | 20.8 | 2870 |
| COCc1cc(Cn2nc(-c3cccs3)c3c(C)nc(C)cc32)ccc1-c1cc(C)sc1S(=O)(=O)Nc1noc(C)c1C [Example 21, 3-[4-(4,6-dimethyl-3-thiophen-2-yl-pyrazolo[4,3-c]pyridin-1-ylmethyl)-2-methoxymethyl-phenyl]-5-methyl-thiophene-2-sulfonic acid (4,5-dimethyl-isoxazol-3-yl)-amide] | 7.47 | 464 |
| CCOCc1cc(Cn2nc(-c3cccs3)c3c(C)nc(CC)cc32)ccc1-c1cc(C)sc1S(=O)(=O)Nc1noc(C)c1C [Example 22, 3-[2-Ethoxymethyl-4-(6-ethyl-4-methyl-3-thiophen-2-yl-pyrazolo[4,3-c]pyridin-1-ylmethyl)-phenyl]-5-methyl-thiophene-2-sulfonic acid (4,5-dimethyl-isoxazol-3-yl)-amide] | 25.2 | 454 |
| CCOc1cc(=O)n(Cc2ccc(-c3cc(C)sc3S(=O)(=O)Nc3noc(C)c3C)c(C)c2)c2cc(CC)nc(CC)c12 [Example 39, 3-[4-(4-Ethoxy-5,7-diethyl-2-oxo-2H-[1,6]naphthyridin-1-ylmethyl)-2-methyl-phenyl]-5-methyl-thiophene-2-sulfonic acid (4,5-dimethyl-isoxazol-3-yl)-amide] | 25.1 | 781 |
| Cc1cc2c(ccc(=O)n2Cc2ccc(-c3cc(C)sc3S(=O)(=O)Nc3noc(C)c3C)c(OCC(C)C)c2)c(C)n1 [Example 36, 3-[4-(5,7-Dimethyl-2-oxo-2H-[1,6]naphthyridin-1-ylmethyl)-2-isobutoxy-phenyl]-5-methyl-thiophene-2-sulfonic acid (4,5-dimethyl-isoxazol-3-yl)-amide] | 58.3 | 758 |
| CCOCc1cc(Cn2nc(-c3cccs3)c3c(C)nc(CC)cc32)ccc1-c1cc(C)sc1S(=O)(=O)Nc1onc(C)c1C [Example 27, 3-[2-Ethoxymethyl-4-(6-ethyl-4-methyl-3-thiophen-2-yl-pyrazolo[4,3-c]pyridin-1-ylmethyl)-phenyl]-5-methyl-thiophene-2-sulfonic acid (3,4-dimethyl-isoxazol-5-yl)-amide] | 15.6 | 646 |
| Cc1cc2c(c(C)n1)c(-c1ccccc1)nn2Cc1ccc(-c2cc(C)sc2S(=O)(=O)Nc2noc(C)c2C)c(C)c1 [Example 18] | 7.98 | 1430 |

The next lines start with the values.

| IC50 (human AT1 receptor) [nM] | IC50 (human ETA receptor) [nM] | Compound |
| --- | --- | --- |
| 11.4 | 503 | CCOCc1cc(Cn2nc(Cn3nc(C)cc3C)c3c(C)nc(C)cc32)ccc1-c1cc(C)sc1S(=O)(=O)Nc1noc(C)c1C [Example 15, 3-{4-[3-(3,5-Dimethyl-pyrazol-1-ylmethyl)-4,6-dimethyl-pyrazolo[4,3-c]pyridin-1-ylmethyl]2-ethoxymethyl-phenyl}-5-methyl-thiophene-2-sulphonic acid (4,5-dimethyl-isoxazol-3-yl)-amide] |
| 153 | 407 | Cc1cc2c(c(C)n1)c(-c1ccc(Cl)cc1)nn2Cc1ccc(-c2cc(C)sc2S(=O)(=O)Nc2noc(C)c2C)c(C)c1 [Example 37, 3-{4-[3-(4-Chloro-phenyl)-4,6-dimethyl-pyrazolo[4,3-c]pyridin-1-ylmethyl]-2-methyl-phenyl}-5-methyl-thiophene-2-sulfonic acid (4,5-dimethyl-isoxazol-3-yl)-amide] |
| 24.6 | 814 | CCc1cc2c(ccc(=O)n2Cc2ccc(-c3cc(C)sc3S(=O)(=O)Nc3noc(C)c3C)cc2)c(CC)n1 [Example 7, 3-[4-(5,7-diethyl-2-oxo-2H-[1,6]naphthyridin-1-yl-methyl)-phenyl]-5-methyl-thiophene-2-sulphonic acid-(4,5 dimethyl-isoxazol-3-yl)-amide] |
| 117 | 18900 | CCOc1nc2cccc(C(=O)O)c2n1Cc1ccc(-c2cc(C)sc2S(=O)(=O)Nc2onc(C)c2C)cc1 [Example 26, 3-{4-[2-(3,4-dimethyl-isoxazol-5-ylsulfamoyl)-5-methyl-thiophen-3-yl]-benzyl}-2-ethoxy-3H-benzoimidazole-4-carboxylic acid] |
| 27.4 | 1890 | CCc1cc2c(c(C)n1)c(-c1ccc(OC)cc1)nn2Cc1ccc(-c2cc(C)sc2S(=O)(=O)Nc2noc(C)c2C)c(C)c1 [Example 24, 3-{4-[6-Ethyl-3-(4-methoxy-phenyl)-4-methyl-pyrazolo[4,3-c]pyridin-1-ylmethyl]-2-methyl-phenyl}-5-methyl-thiophene-2-sulfonic acid (4,5-dimethyl-isoxazol-3-yl)-amide] |
| 18.9 | 3320 | CCc1cc2c(ccc(=O)n2Cc2ccc(-c3cc(C)sc3S(=O)(=O)Nc3onc(C)c3C)c(C)c2)c(CC)n1 [Example 30, 3-[4-(5,7-diethyl-2-oxo-2H-[1,6]naphthyridin-1-ylmethyl)-2-methyl-phenyl]-5-methyl-thiophene-2-sulfonic acid (3,4-dimethyl-isoxazol-5-yl)-amide] |
| 29 | 6200 | CCc1cc(OCc2ccc(-c3ccsc3S(=O)(=O)Nc3noc(C)c3C)cc2)c(C(=O)c2ccccc2)c(C)n1 [Example 4, 3-[4-(3-Benzoyl-6-ethyl-2-methyl-pyridin-4-yloxymethyl)-phenyl]-thiophene-2-sulphonic acid (4,5-dimethyl-isoxazol-3-yl)-amide] |
| 22.9 | 562 | CCOCc1cc(Cn2nc(C)c3c(C)nc(CC)cc32)ccc1-c1cc(C)sc1S(=O)(=O)Nc1noc(C)c1C [Example 6, 3-[2-Ethoxymethyl-4-(6-ethyl-3,4-dimethyl-pyrazolo[4,3-c]pyridine-1-ylmethyl)-phenyl]-5-methyl-thiophene-2-sulphonic acid(4,5-dimethyl-isoxazol-3-yl)-amide] |
| 125 | 2920 | CCc1cc2c(c(Sc3ccccc3)cc(=O)n2Cc2ccc(-c3ccsc3S(=O)(=O)Nc3noc(C)c3C)cc2)c(CC)n1 [Example 3, 3-[4-(5,7-diethyl-2-oxo-4-phenylsulphanyl-2H-[1,6]naphthyridin-1 ylmethyl)-phenyl]-thiophene-2-sulphonic acid(4,5-dimethyl-isoxazol-3-yl)-amide] |
| 22.1 | 248 | CCOCc1cc(Cn2nc(-c3ccc(OC)cc3)c3c(C)nc(CC)cc32)ccc1-c1cc(C)sc1S(=O)(=O)Nc1noc(C)c1C [Example 23, 3-{2-Ethoxymethyl-4-[6-ethyl-3-(4-methoxy-phenyl)-4-methyl-pyrazolo[4,3-c]pyridin-1-ylmethyl]-phenyl}-5-methyl-thiophene-2-sulfonic acid (4,5-dimethyl-isoxazol-3-yl)-amide] |
| 15.9 | 292 | Cc1cc2c(cc(-c3ccccc3)c(=O)n2Cc2ccc(-c3cc(C)sc3S(=O)(=O)Nc3noc(C)c3C)c(C)c2)c(C)n1 [Example 29, 3-[4-(5,7-dimethyl-2-oxo-3-phenyl-2H-[1,6]naphthyridin-1-ylmethyl)-2-methyl-phenyl]-5-methyl-thiophene-2-sulfonic acid (4,5-dimethyl-isoxazol-3-yl)-amide] |
